Legend:
Conditions in all cases: 48 h
[1] = tested on: NCI-H295R; assay: AC50 viability; higher = less potent
Summary of the method: (§1)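 In 1,536-well plates, 500–1,000 cells/well of three adrenocortical carcinoma cell lines in 5 µL medium received 23 nL of each library compound across 11 concentrations. At 48 h, CellTiter-Glo was incubated for 15 minutes at room temperature and luminescence measured. Per-plate normalisation used vehicle and empty-well controls, and only inhibitory or non-responding curve classes were kept when fitting concentration-response curves for AC50 and area under the curve.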

[2] = tested on: CU-ACC1; assay: AC50 viability; higher = less potent
Summary of the method: as §1

[3] = tested on: NCI-H295R; assay: area under concentration-response curve (viability) (AUC (a.u.)); higher = less active
Summary of the method: as §1

[4] = tested on: CU-ACC1; assay: as above
Summary of the method: as §1

[5] = tested on: CU-ACC2; assay: as above
Summary of the method: as §1

C[S+](=O)([O-])N1CCc2c(-c3cnc(N)nc3)nc(N3CCOCC3)nc21
AC50 viability [1]: 417 nM | AC50 viability [2]: 1180 nM | area under concentration-response curve [3]: 389 | area under concentration-response curve [4]: 403 | area under concentration-response curve [5]: 345

Cc1nnn(C)c1-c1cnc2c3ccc(C(C)(C)O)cc3n([C@H](c3ccccc3)C3CCOCC3)c2c1
AC50 viability [1]: 16.6 nM | AC50 viability [2]: 468 nM | area under concentration-response curve [3]: 425 | area under concentration-response curve [4]: 416 | area under concentration-response curve [5]: 482

CC1=C(C)C2=C(S1)[N]3C(=NN=C3[C@H](CC(=O)OC(C)(C)C)/N=C2/C4=CC=C(Cl)C=C4)C
AC50 viability [1]: 16600 nM | AC50 viability [2]: 18600 nM | area under concentration-response curve [3]: 520 | area under concentration-response curve [4]: 432 | area under concentration-response curve [5]: 553

C/C(=N\Nc1nnc2c(n1)[nH]c1c(C)cccc12)c1ccccn1
AC50 viability [1]: 9340 nM | AC50 viability [2]: 2350 nM | area under concentration-response curve [3]: 415 | area under concentration-response curve [4]: 403 | area under concentration-response curve [5]: 533

Cc1cc(Nc2ncnc3ccc(-c4ccc(CNCC[S+](C)(=O)[O-])o4)cc23)ccc1Oc1ccn2ncnc2c1
AC50 viability [1]: 8330 nM | AC50 viability [2]: 23500 nM | area under concentration-response curve [3]: 392 | area under concentration-response curve [4]: 386 | area under concentration-response curve [5]: 355

O=C1NC(=O)[C@@H](c2c[nH]c3ccccc23)[C@H]1c1cn2c3c(cccc13)CCC2
AC50 viability [1]: 590 nM | AC50 viability [2]: 20900 nM | area under concentration-response curve [3]: 504 | area under concentration-response curve [4]: 494 | area under concentration-response curve [5]: 611

CC(C)(C)NC(=O)c1cncn1C1CCN(c2ccc(-c3nnc(C(F)(F)F)o3)cn2)CC1
AC50 viability [1]: 7420 nM | AC50 viability [2]: 1660 nM | area under concentration-response curve [3]: 475 | area under concentration-response curve [4]: 381 | area under concentration-response curve [5]: 539

COC(=O)Nc1ccc(-c2nc(N3CCOCC3)c3cnn(C4CCN(C(=O)OC)CC4)c3n2)cc1
AC50 viability [1]: 2950 nM | AC50 viability [2]: 2950 nM | area under concentration-response curve [3]: 485 | area under concentration-response curve [4]: 399 | area under concentration-response curve [5]: 573

CC(C)n1nc(-c2ccc3oc(N)nc3c2)c2c(N)ncnc21
AC50 viability [1]: 166 nM | AC50 viability [2]: 37.2 nM | area under concentration-response curve [3]: 404 | area under concentration-response curve [4]: 338 | area under concentration-response curve [5]: 455

CC(=O)Nc1ccc(C(=O)Nc2ccccc2N)cc1
AC50 viability [1]: 18600 nM | AC50 viability [2]: 7420 nM | area under concentration-response curve [3]: 445 | area under concentration-response curve [4]: 413 | area under concentration-response curve [5]: 408

COc1cc(/C=C/C(=O)CC(=O)/C=C/c2ccc(O)c(OC)c2)ccc1O
AC50 viability [1]: 26300 nM | AC50 viability [2]: 23500 nM | area under concentration-response curve [3]: 545 | area under concentration-response curve [4]: 548 | area under concentration-response curve [5]: 591

C[C@@H]1CN(Cc2ccc(F)cc2)CCN1C(=O)COc1ccc(Cl)cc1NC(N)=O
AC50 viability [1]: 166 nM | AC50 viability [2]: 1860 nM | area under concentration-response curve [3]: 465 | area under concentration-response curve [4]: 412 | area under concentration-response curve [5]: 522

C[C@@H](C(=O)Nc1ccc(Cl)cc1)[C@H]1CC[C@@H](c2ccnc3ccc(F)cc32)CC1
AC50 viability [1]: 16600 nM | AC50 viability [2]: 29500 nM | area under concentration-response curve [3]: 564 | area under concentration-response curve [4]: 488 | area under concentration-response curve [5]: 626

NC(=O)c1ccccc1Nc1ccnc(Nc2cccc(O)c2)n1
AC50 viability [1]: 2630 nM | AC50 viability [2]: 20900 nM | area under concentration-response curve [3]: 462 | area under concentration-response curve [4]: 465 | area under concentration-response curve [5]: 553

Cn1c(=O)n(-c2ccc(C(C)(C)C#N)cc2)c2c3cc(-c4cnc5ccccc5c4)ccc3ncc21
AC50 viability [1]: 171 nM | AC50 viability [2]: 108 nM | area under concentration-response curve [3]: 510 | area under concentration-response curve [4]: 471 | area under concentration-response curve [5]: 623

O=C(/C=C\n1cnc(-c2cc(C(F)(F)F)cc(C(F)(F)F)c2)n1)N1CC(F)(F)C1
AC50 viability [1]: 590 nM | AC50 viability [2]: 1320 nM | area under concentration-response curve [3]: 456 | area under concentration-response curve [4]: 448 | area under concentration-response curve [5]: 467

C=C1C(=O)O[C@H]2C[C@H](C)C(/C=C/C(C)=O)=CC[C@H]12
AC50 viability [1]: 18600 nM | AC50 viability [2]: 9340 nM | area under concentration-response curve [3]: 519 | area under concentration-response curve [4]: 450 | area under concentration-response curve [5]: 529

NC1=NC=C(C=C1)C2=CC=C3N=CC\4=C(N(C(=O)\C=C4)C5=CC(=CC=C5)C(F)(F)F)C3=C2
AC50 viability [1]: 83.3 nM | AC50 viability [2]: 235 nM | area under concentration-response curve [3]: 294 | area under concentration-response curve [4]: 314 | area under concentration-response curve [5]: 387

Cn1cc(/C=C/C(=O)c2cccc(F)c2)cc1/C=C/C(=O)NO
AC50 viability [1]: 8330 nM | AC50 viability [2]: 5900 nM | area under concentration-response curve [3]: 439 | area under concentration-response curve [4]: 428 | area under concentration-response curve [5]: 513

C[C@@H]1O[C@@H](O[C@@H]2C=C3CC[C@@H]4[C@H](CC[C@]5(C)[C@@H](c6ccc(=O)oc6)CC[C@]45O)[C@@]3(C)CC2)[C@H](O)[C@H](O)[C@H]1O
AC50 viability [1]: 33.2 nM | AC50 viability [2]: 14.8 nM | area under concentration-response curve [3]: 277 | area under concentration-response curve [4]: 219 | area under concentration-response curve [5]: 307

C[C@H]1O[C@H](C[C@H](O)[C@@H]1O)O[C@H]2[C@@H](O)C[C@@H](O[C@@H]2C)O[C@H]3[C@@H](O)C[C@@H](O[C@@H]3C)O[C@H]4CC[C@@]5(C)[C@H](CC[C@@H]6[C@@H]5C[C@@H](O)[C@]7(C)[C@H](CC[C@]67O)C/8=C/C(=O)OC8)C4
AC50 viability [1]: 118 nM | AC50 viability [2]: 37.2 nM | area under concentration-response curve [3]: 269 | area under concentration-response curve [4]: 255 | area under concentration-response curve [5]: 349

CNC(=O)c1cc(Oc2ccc(NC(=O)Nc3ccc(Cl)c(C(F)(F)F)c3)c(F)c2)ccn1
AC50 viability [1]: 20900 nM | AC50 viability [2]: 37200 nM | area under concentration-response curve [3]: 545 | area under concentration-response curve [4]: 436 | area under concentration-response curve [5]: 596

CNC(=O)Nc1ccc(-c2nc(N3CC4CCC(C3)O4)c3cnn(C4CCC5(CC4)OCCO5)c3n2)cc1
AC50 viability [1]: 1050 nM | AC50 viability [2]: 148 nM | area under concentration-response curve [3]: 455 | area under concentration-response curve [4]: 404 | area under concentration-response curve [5]: 520

Reference: the supplement of paper PMC10949913
